Data from patent US9119847B2, “Neferine and the use thereof in treating huntington disease” (Macau University of Science and Technology, priority 2013, dated 2015).

Columns and labels:
mutant huntingtin = conditions: mouse model of Huntington's disease, ref. [10]; cited from earlier work
[1] = test system: Atg7-knockout mouse embryonic fibroblasts (Atg7−/−); assay: GFP-LC3 puncta in Atg7 deficient MEFs; assay type: cell-based; conditions: 7.5 μM neferine, 24 h, Atg7−/− MEFs (FIGS. 4A, 4B)
Description: (§1) GFP-LC3 puncta formation was quantified as previously described. In brief, both Atg7 wild-type and deficient mouse embryonic fibroblasts (MEFs) grown on coverslips in a 6-well plate were treated with indicated concentrations of neferine. The cells were then fixed in 4% paraformaldehyde for 20 minutes at room temperature and then rinsed with PBS. Slides were mounted with FluorSave™ mounting media (Calbiochem, San Diego, Calif.) and examined by fluorescence microscopy. The number of GFP-positive cells with GFP-LC3 puncta formation was examined under the Nikon ECLIPSE 80i microscope. Representative images were captured with CCD digital camera Spot RT3™ (Diagnostic Instruments, Inc., Melville, N.Y.). To quantify for autophagy, the percentage of cells with punctate GFP-LC3 fluorescence was calculated by counting the number of the cells with punctate GFP-LC3 fluorescence in GFP-positive cells. A minimum of 150 cells from 3 randomly selected fields was scored.

[2] = test system: EGFP-HDQ74 transfected Atg7 wild-type MEFs; assay: Mutant huntingtin aggregates in EGFP-HDQ74 transfected Atg7 wild-type MEFs; assay type: cell-based, mouse; conditions: 7.5 μM neferine, 24 h, Atg7+/+ cells (FIGS. 5A, 5B)
Description: (§2) In brief, both EGFP-HDQ74 transfected Atg7 wild-type and deficient mouse embryonic fibroblasts (MEFs) grown on coverslips in a 6-well plate were treated with indicated concentrations of neferine. The cells were then fixed in 4% paraformaldehyde for 20 minutes at room temperature and then rinsed with PBS. Slides were mounted with FluorSave™ mounting media (Calbiochem, San Diego, Calif.) and examined by fluorescence microscopy. The number of cells with GFP-aggregates formation was examined under the Nikon ECLIPSE 80i microscope. Representative images were captured with CCD digital camera Spot RT3™ (Diagnostic Instruments, Inc., Melville, N.Y.). To quantify for the clearance of mutant huntingtin, the percentage of cells with GFP-aggregates was calculated by counting the number of the cells with […] in GFP-positive cells. A minimum of 150 cells from 3 randomly selected fields was scored.

[3] = test system: mutant huntingtin EGFP-HDQ 55/74; assay: Removal of mutant huntingtin EGFP-HDQ 55/74, immunoblotting against EGFP; assay type: cell-based, rat; conditions: 7.5 μM neferine, 24 hours, transfected PC-12 cells (FIG. 3)
Description: PC-12 cells were transfected transiently with EGFP-HDQ 55/74 plasmids for 24 hours using Lipofectamine Plus LTX reagent (Invitrogen) according to the manufacturer's protocol. The transfected cells were then treated with 7.5 μM neferine for 24 hours. The removal of mutant huntingtin, EGFP-HDQ 55 and 74, was then quantitated by immunoblotting with antibody against EGFP.

[4] = test system: EGFP-HDQ74 transfected Atg7 deficient MEFs; assay: Mutant huntingtin aggregates in EGFP-HDQ74 transfected Atg7 deficient MEFs; assay type: cell-based, mouse; conditions: 7.5 μM neferine, 24 h, Atg7−/− cells (FIGS. 5A, 5B)
Description: as §2

[5] = test system: AMPK-mTOR signaling pathway; assay: Detection of mTOR signaling marker proteins (p-AMPK, p-p70S6K) and LC3-II by western blot; assay type: cell-based, rat
Description: PC-12 cells were treated with neferine (7.5 μM) from 0-24 h. Cells treated with 0.3 μM of rapamycin (Rap) for 24 h were used as the positive control. Cell lysate was then harvested and analyzed for p-AMPK, AMPK, p-p70S6K, p70S6K and α-tubulin respectively. PC-12 cells were treated with 7.5 μM of neferine with or without AMPK inhibitor (compound C, CC, 5 μM) for 24 h for the detection of LC3-II marker. Cell lysates were analyzed for LC3 I/II and β-actin, respectively. After that, the membrane was further incubated with HRP-conjugated secondary antibodies for 60 minutes. Finally, protein bands were visualized by using the ECL Western Blotting Detection Reagents (Invitrogen).

PC-12 cells [6] = assay: Quantification of autophagy GFP-LC3 puncta in PC-12 cells; assay type: cell-based, rat
Description: as §1, with “PC-12 cells” for “both Atg7 wild-type and deficient mouse embryonic fibroblasts (MEFs)”, “were” for “were treated with indicated concentrations of neferine. The cells were then”
The data of PC-12 cells with GFP-LC3 expression without any treatment of neferine was used as control.

LC3-II = assay: Detection of autophagic marker protein LC3 conversion (western blot); assay type: cell-based, rat; conditions: PC-12 cells, with lysosomal protease inhibitors E64d and pepstatin A (FIG. 1D)
Description: After neferine treatments with or without autophagy inhibitor (3-Methyladenine, 3-MA) and protease inhibitor (10 μg/mL E64D and pepstain A), cells were harvested and lysed in RIPA buffer (Cell Signaling Technologies Inc., Beverly, Mass.). The cell lysates were then resolved by SDS-PAGE. After electrophoresis, the proteins from SDS-PAGE were transferred to nitrocellulose membrane which was then blocked with 5% non-fat dried milk for 60 minutes. The membrane was then incubated with LC3 primary antibodies (1:1000) in TBST overnight at 4° C. After that, the membrane was further incubated with HRP-conjugated secondary antibodies for 60 minutes. Finally, protein bands were visualized by using the ECL Western Blotting Detection Reagents (Invitrogen, Paisley, Scotland, UK).
To further confirm its autophagic activity, PC-12 cells treated with neferine were analyzed by western blot for LC3-I to LC3-II conversion. To differentiate that the autophagy effect was due to LC3-II formation, rather than failure of fusion between autophagosome and lysosomes, level of LC3-II was assayed with the presence of two lysosomal inhibitors (E64d and pepstatin A) that […].

[7] = test system: PC-12 cells expressing GFP-LC3; assay: Quantification of neferine-mediated autophagy (GFP-LC3 puncta) in the presence of compound C; assay type: cell-based, rat; conditions: 7.5 μM neferine plus compound C 5 μM, PC-12 cells (FIGS. 2B, 2C)
Description: GFP-LC3 puncta formation was quantified as previously described. In brief, PC-12 cells expressing GFP-LC3 were treated with 7.5 μM neferine in the presence of compound C (CC, 5 μM) for 12 h. The cells were then fixed in 4% paraformaldehyde for 20 minutes at room temperature and then rinsed with PBS. Slides were mounted with FluorSave™ mounting media (Calbiochem) and examined by fluorescence microscopy. To quantify for autophagy, the percentage of cells with punctate GFP-LC3 fluorescence was calculated by counting the number of the cells with punctate GFP-LC3 fluorescence in GFP-positive cells. A minimum of 150 cells from 3 randomly selected fields was scored.

[8] = test system: Atg7 wild-type mouse embryonic fibroblasts (Atg7+/+); assay: GFP-LC3 puncta in Atg7 wild-type MEFs; assay type: cell-based; conditions: 7.5 μM neferine, 24 h, Atg7+/+ MEFs (FIGS. 4A, 4B)
Description: as §1

PC-12 cells [9] = assay: Cytotoxicity, crystal violet staining cell viability assay; assay type: cell-based, rat; conditions: 7.5 μM neferine, 24 hours, PC-12 cells (FIGS. 6A, 6B)
Description: The test compound of neferine was dissolved in dimethyl sulfoxide (DMSO) at a final concentration of 100 mmol/L and stored at −20° C. For cell viability assay measured by crystal violet staining, PC-12 cells were incubated in 35 mm disc followed by the addition of 7.5 μM neferine for 24 hours. The cells were then incubated with crystal violet for 10 minutes followed by a ddH2O wash. The stained cell images were captured by CCD digital camera Spot RT3™ under the Nikon ECLIPSE 80i microscope with 4× magnification. Cell viability was quantified by dissolving stained cells in 10% acetic acid (200 μL/well). The colorimetric reading of the solute mixture was then determined by spectrophotometer at OD 560 nm. The percentage of cell viability was calculated using the following formula: Cell viability (%)=Cells number treated/Cells number DMSO control×100. Data were obtained from three independent experiments.

[10] = test system: PC-12 cells transfected with mutant huntingtin EGFP-HDQ 55 and 74; assay: MTT cytotoxicity assay in PC-12 cells expressing mutant huntingtin; assay type: cell-based, rat; conditions: 7.5 μM neferine, 24 h, PC-12 cells with EGFP-HDQ 55 or EGFP-HDQ 74 (FIG. 7)
Description: Cell cytotoxicity assay: Cytotoxicity was assessed using the 3-(4,5-dimethylthiazol-2-yl)-2,5-diphenyltetrazolium bromide assay. PC-12 cells were transfected with or without mutant huntingtin EGFP-HDQ 55 and 74 for 16 h, the PC-12 cells (4000 cells) were then seeded on 96-well plates per well and then exposed to 7.5 μM of neferine for 24 h […]. Subsequently, 10 μL of MTT reagents was added to each well and incubated at 37° C. for 4 hours, followed by the addition of 100 μL solubilization buffer (10% SDS in 0.01 mol/L HCl) and overnight incubation. Absorbance at 585 nm was determined from each well on the following day. The percentage of cell viability was calculated using the following formula: Cell viability (%)=Cells number treated/Cells number DMSO control×100. Data was obtained from three independent experiments.

[11] = ref. [14]; cited from earlier work
[12] = 7.5 μM neferine, 0-24 h, PC-12 cells (FIG. 2A)

SMILES: C1COC(NC(C2CC2)C2CC2)=N1 [rilmenidine]
- toxicity of mutant huntingtin (mutant huntingtin): attenuate the toxicity of mutant huntingtin

SMILES: COc1ccc(C[C@@H]2c3cc(Oc4cc(C[C@@H]5c6cc(OC)c(OC)cc6CCN5C)ccc4O)c(OC)cc3CCN2C)cc1 [neferine]
- GFP-LC3 puncta formation [1]: not in Atg7-knockout mouse embryonic fibroblasts
- clearance of mutant huntingtin EGFP-HDQ74 inclusions [2]: enhance the clearance of mutant huntingtin EGFP-HDQ74 inclusions
- clearance of overexpressed EGFP-tagged mutant huntingtin EGFP-HDQ 55 [3]: enhanced the clearance
- clearance of overexpressed EGFP-tagged mutant huntingtin EGFP-HDQ 74 [3]: enhanced the clearance
- clearance of mutant huntingtin EGFP-HDQ74 inclusions [4]: not in autophagy-deficient cells
- LC3-II level in presence of AMPK inhibitor compound C ([5]; 7.5 μM neferine plus compound C 5 μM, 24 h, PC-12 cells, western blot (FIG. 2D)): decrease in LC3-II level
- p70S6K phosphorylation [5, 12]: concomitant reduction in its downstream p70S6K phosphorylation
- phosphorylation of AMPK [5, 12]: activate the phosphorylation of AMPK in a time dependent manner
- percentage of cells with GFP-LC3 puncta formation (PC-12 cells [6]; 7.5 μM neferine, 24 h, PC-12 cells with GFP-LC3 expression, vs untreated control (FIGS. 1B, 1C)): increased the percentage of cells with GFP-LC3 puncta formation significantly
- GFP-LC3 puncta formation in presence of autophagy inhibitor 3-MA (PC-12 cells [6]; neferine plus 3-Methyladenine (3-MA), PC-12 cells): significant reduction in GFP-LC3 puncta formation
- rate of LC3-II formation (LC3-I to LC3-II conversion) (LC3-II): increases the rate of LC3-II formation
- neferine-induced GFP-LC3 puncta formation in presence of AMPK inhibitor compound C [7]: significant reduction in neferine-induced GFP-LC3 puncta formation
- GFP-LC3 puncta formation [8]: induce GFP-LC3 puncta formation
- cytotoxicity / morphological damage (crystal violet assay) (PC-12 cells [9]): no significant morphological damage
- cell death induced by mutant huntingtin (cell viability, MTT) [10]: attenuated cell death induced by mutant huntingtin

SMILES: O=c1c(O)c(-c2ccc(O)c(O)c2)oc2cc(O)ccc12 [fisetin]
- bioavailability [11]: poor bioavailability
- effective concentration [11]: high effective concentration
- lipophilicity [11]: low lipophilicity
